Data as given in patent publication EP0745599A2, “1-(3-Heterocyclylphenyl)-s-triazine-2,4,6-oxo or thiotrione herbicidal agents” (American Cyanamid Company, priority 1995, dated 1996).

Tests used:
Type in all cases: in vivo
Conditions in all cases: rated four to five weeks after treatment
[1] = test system: TRITICUM AESTIVUM, CV. APOLLO; assay: Preemergence herbicidal evaluation, TRZAWO (Wheat, Winter, CV. APOLLO); parameters: key to TRZAWO: visual rating scale 0-9 vs control
Text: (§1) Results of herbicide evaluation are expressed on a rating scale (0-9). The scale is based upon a visual observation of plant stand, vigor, malformation, size, chlorosis and overall plant appearance as compared with a control.
(§2) The preemergence herbicidal activity of the test compounds of the present invention is exemplified by the following tests in which the seeds of a variety of monocotyledonous and dicotyledonous plants are separately mixed with potting soil and planted on top of approximately one inch of soil in separate pint cups. After planting, the cups are sprayed with the selected aqueous acetone solution containing test compound in sufficient quantity to provide the equivalent of about 0.125 to 0.50 kg per hectare of test compound per cup. The treated cups are then placed on greenhouse benches, watered and cared for in accordance with conventional greenhouse procedures. From four to five weeks after treatment, the tests are terminated and each cup is examined and rated according to the rating system provided in Example 42.

[2] = test system: SETARIA VIRIDIS, (L) BEAU; assay: Postemergence herbicidal evaluation, SETVI (Foxtail, Green)
Description: (§3) In the tests, seedling plants are grown in jiffy flats for about two weeks. The test compounds are dispersed in 50/50 acetone/water mixtures containing 0.5% TWEEN®20, a polyoxyethylene sorbitan monolaurate surfactant of Atlas Chemical Industries, in sufficient quantities to provide the equivalent of about 0.125 kg to 0.500 kg per hectare of active compound when applied to the plants through a spray nozzle operating at 40 psi for a predetermined time. After spraying, the plants are placed on greenhouse benches and are cared for in the usual manner, commensurate with conventional greenhouse practices. From four to five weeks after treatment, the seedling plants are examined and rated according to the rating system set forth below. Where more than one test is involved for a given compound, the data are averaged.
as §1

[3] = test system: SETARIA VIRIDIS, (L) BEAU; assay: Preemergence herbicidal evaluation, SETVI (Foxtail, Green); parameters: key to SETVI: visual rating scale 0-9 vs control
Text: as §1, §2

[4] = test system: ABUTILON THEOPHRASTI, MEDIC.; assay: Preemergence herbicidal evaluation, ABUTH (Velvetleaf); parameters: key to ABUTH: visual rating scale 0-9 vs control
Text: as §1, §2

[5] = test system: CHENOPODIUM ALBUM, L.; assay: Preemergence herbicidal evaluation, CHEAL (Lambsquarters, Common); parameters: key to CHEAL: visual rating scale 0-9 vs control
Text: as §1, §2

[6] = test system: GALIUM APARINE; assay: Preemergence herbicidal evaluation, GALAP (Galium); parameters: key to GALAP: visual rating scale 0-9 vs control
Text: as §1, §2

[7] = test system: ORYZA SATIVA, L. TEBONNET; assay: Preemergence herbicidal evaluation, ORYSAT (Rice, Tebonnet); parameters: key to ORYSAT: visual rating scale 0-9 vs control
Text: as §1, §2

[8] = test system: ECHINOCHLOA CRUS-GALLI, (L) BEAU; assay: Preemergence herbicidal evaluation, ECHCG (Barnyardgrass); parameters: key to ECHCG: visual rating scale 0-9 vs control
Text: as §1, §2

[9] = test system: CASSIA OBTUSIFOLIA, L.; assay: Preemergence herbicidal evaluation, CASOB (Sicklepod); parameters: key to CASOB: visual rating scale 0-9 vs control
Text: as §1, §2

[10] = test system: AMBROSIA ARTEMISIIFOLIA, L.; assay: Preemergence herbicidal evaluation, AMBEL (Ragweed, Common); parameters: key to AMBEL: visual rating scale 0-9 vs control
Text: as §1, §2

[11] = test system: IPOMOEA SPP.; assay: Preemergence herbicidal evaluation, IPOSS (Morningglory Spp.); parameters: key to IPOSS: visual rating scale 0-9 vs control
Text: as §1, §2

[12] = test system: GLYCINE MAX(L)MERR. CV. WILLIAMS; assay: Preemergence herbicidal evaluation, GLXMAW (Soybean, Williams); parameters: key to GLXMAW: visual rating scale 0-9 vs control
Text: as §1, §2

[13] = test system: ECHINOCHLOA CRUS-GALLI, (L) BEAU; assay: Postemergence herbicidal evaluation, ECHCG (Barnyardgrass)
Description: as §3, §1

[14] = test system: ZEA MAYS L.; assay: Preemergence herbicidal evaluation, ZEAMX (Corn, Field); parameters: key to ZEAMX: visual rating scale 0-9 vs control
Text: as §1, §2

SMILES: C#CCn1c(=O)n(C)c(=O)n(-c2cc(N3C(=O)C4=C(CCCC4)C3=O)c(F)cc2Cl)c1=O [Compound 16, N-{4-Chloro-2-fluoro-5-[hexahydro-3-methyl-2,4,6-trioxo-5-(2-propynyl)-s-triazin-1-yl]phenyl}-1-cyclohexene-1,2-dicarboximide]
- TRZAWO ([1]; Rate 0.125 kg/ha): 0.0
- TRZAWO ([1]; Rate 0.250 kg/ha): 0.0
- TRZAWO ([1]; Rate 0.500 kg/ha): 0.0
- Herbicide rating (0-9) SETVI ([2]; 0.125 kg/ha): 0.0
- Herbicide rating (0-9) SETVI ([2]; 0.250 kg/ha): 0.0
- Herbicide rating (0-9) SETVI ([2]; 0.500 kg/ha): 0.0
- SETVI ([3]; Rate 0.125 kg/ha): 0.0
- SETVI ([3]; Rate 0.250 kg/ha): 0.0
- SETVI ([3]; Rate 0.500 kg/ha): 3.0
- ABUTH ([4]; Rate 0.125 kg/ha): 2.0
- ABUTH ([4]; Rate 0.250 kg/ha): 6.0
- ABUTH ([4]; Rate 0.500 kg/ha): 9.0
- CHEAL ([5]; Rate 0.125 kg/ha): 6.0
- CHEAL ([5]; Rate 0.250 kg/ha): 8.0
- CHEAL ([5]; Rate 0.500 kg/ha): 9.0
- GALAP ([6]; Rate 0.125 kg/ha): 0.0
- GALAP ([6]; Rate 0.250 kg/ha): 0.0
- GALAP ([6]; Rate 0.500 kg/ha): 4.0
- ORYSAT ([7]; Rate 0.125 kg/ha): 0.0
- ORYSAT ([7]; Rate 0.250 kg/ha): 0.0
- ORYSAT ([7]; Rate 0.500 kg/ha): 0.0
- ECHCG ([8]; Rate 0.125 kg/ha): 0.0
- ECHCG ([8]; Rate 0.250 kg/ha): 0.0
- ECHCG ([8]; Rate 0.500 kg/ha): 0.0
- CASOB ([9]; Rate 0.125 kg/ha): 0.0
- CASOB ([9]; Rate 0.250 kg/ha): 0.0
- CASOB ([9]; Rate 0.500 kg/ha): 0.0
- AMBEL ([10]; Rate 0.125 kg/ha): 0.0
- AMBEL ([10]; Rate 0.250 kg/ha): 0.0
- AMBEL ([10]; Rate 0.500 kg/ha): 2.0
- IPOSS ([11]; Rate 0.125 kg/ha): 0.0
- IPOSS ([11]; Rate 0.250 kg/ha): 0.0
- IPOSS ([11]; Rate 0.500 kg/ha): 0.0
- GLXMAW ([12]; Rate 0.125 kg/ha): 0.0
- GLXMAW ([12]; Rate 0.250 kg/ha): 0.0
- GLXMAW ([12]; Rate 0.500 kg/ha): 0.0
- Herbicide rating (0-9) ECHCG ([13]; 0.125 kg/ha): 0.0
- Herbicide rating (0-9) ECHCG ([13]; 0.250 kg/ha): 0.0
- Herbicide rating (0-9) ECHCG ([13]; 0.500 kg/ha): 0.0
- ZEAMX ([14]; Rate 0.125 kg/ha): 0.0
- ZEAMX ([14]; Rate 0.250 kg/ha): 1.0
- ZEAMX ([14]; Rate 0.500 kg/ha): 2.0

SMILES: C=CCn1c(=O)n(C)c(=O)n(-c2cc(N3C(=O)C4=C(CCCC4)C3=O)c(F)cc2Cl)c1=O [Compound 17, N-[5-(3-Allylhexahydro-5-methyl-2,4,6-trioxo-s-triazin-1-yl)-4-chloro-2-fluoro-phenyl]-1-cyclohexene-1,2-dicarboximide]
- TRZAWO ([1]; Rate 0.125 kg/ha): 0.0
- TRZAWO ([1]; Rate 0.250 kg/ha): 0.0
- TRZAWO ([1]; Rate 0.500 kg/ha): 0.0
- SETVI ([3]; Rate 0.125 kg/ha): 0.0
- SETVI ([3]; Rate 0.250 kg/ha): 0.0
- SETVI ([3]; Rate 0.500 kg/ha): 3.0
- ABUTH ([4]; Rate 0.125 kg/ha): 0.0
- ABUTH ([4]; Rate 0.250 kg/ha): 3.0
- ABUTH ([4]; Rate 0.500 kg/ha): 9.0
- CHEAL ([5]; Rate 0.125 kg/ha): 6.0
- CHEAL ([5]; Rate 0.250 kg/ha): 9.0
- CHEAL ([5]; Rate 0.500 kg/ha): 9.0
- GALAP ([6]; Rate 0.125 kg/ha): 0.0
- GALAP ([6]; Rate 0.250 kg/ha): 7.0
- GALAP ([6]; Rate 0.500 kg/ha): 4.0
- ORYSAT ([7]; Rate 0.125 kg/ha): 0.0
- ORYSAT ([7]; Rate 0.250 kg/ha): 0.0
- ORYSAT ([7]; Rate 0.500 kg/ha): 2.0
- ECHCG ([8]; Rate 0.125 kg/ha): 0.0
- ECHCG ([8]; Rate 0.250 kg/ha): 0.0
- ECHCG ([8]; Rate 0.500 kg/ha): 0.0
- CASOB ([9]; Rate 0.125 kg/ha): 0.0
- CASOB ([9]; Rate 0.250 kg/ha): 0.0
- CASOB ([9]; Rate 0.500 kg/ha): 0.0
- AMBEL ([10]; Rate 0.125 kg/ha): 0.0
- AMBEL ([10]; Rate 0.250 kg/ha): 0.0
- AMBEL ([10]; Rate 0.500 kg/ha): 2.0
- IPOSS ([11]; Rate 0.125 kg/ha): 0.0
- IPOSS ([11]; Rate 0.250 kg/ha): 0.0
- IPOSS ([11]; Rate 0.500 kg/ha): 0.0
- GLXMAW ([12]; Rate 0.125 kg/ha): 0.0
- GLXMAW ([12]; Rate 0.250 kg/ha): 0.0
- GLXMAW ([12]; Rate 0.500 kg/ha): 0.0
- Herbicide rating (0-9) ECHCG ([13]; 0.125 kg/ha): 0.0
- Herbicide rating (0-9) ECHCG ([13]; 0.250 kg/ha): 0.0
- Herbicide rating (0-9) ECHCG ([13]; 0.500 kg/ha): 0.0
- ZEAMX ([14]; Rate 0.125 kg/ha): 0.0
- ZEAMX ([14]; Rate 0.250 kg/ha): 0.0
- ZEAMX ([14]; Rate 0.500 kg/ha): 3.0

SMILES: C=CCn1c(=O)[nH]c(=O)n(-c2cc(N3C(=O)C4=C(CCCC4)C3=O)c(F)cc2Cl)c1=O [Compound 18, N-[5-(3-Allylhexahydro-2,4,6-trioxo-s-triazin-1-yl)-4-chloro-2-fluorophenyl]-1-cyclohexene-1,2-dicarboximide]
- TRZAWO ([1]; Rate 0.125 kg/ha): 0.0
- TRZAWO ([1]; Rate 0.250 kg/ha): 0.0
- TRZAWO ([1]; Rate 0.500 kg/ha): 0.0
- SETVI ([3]; Rate 0.125 kg/ha): 0.0
- SETVI ([3]; Rate 0.250 kg/ha): 0.0
- SETVI ([3]; Rate 0.500 kg/ha): 0.0
- ABUTH ([4]; Rate 0.125 kg/ha): 0.0
- ABUTH ([4]; Rate 0.250 kg/ha): 0.0
- ABUTH ([4]; Rate 0.500 kg/ha): 0.0
- CHEAL ([5]; Rate 0.125 kg/ha): 0.0
- CHEAL ([5]; Rate 0.250 kg/ha): 5.0
- CHEAL ([5]; Rate 0.500 kg/ha): 7.0
- GALAP ([6]; Rate 0.125 kg/ha): 0.0
- GALAP ([6]; Rate 0.250 kg/ha): 0.0
- GALAP ([6]; Rate 0.500 kg/ha): 4.0
- ORYSAT ([7]; Rate 0.125 kg/ha): 0.0
- ORYSAT ([7]; Rate 0.250 kg/ha): 0.0
- ORYSAT ([7]; Rate 0.500 kg/ha): 0.0
- ECHCG ([8]; Rate 0.125 kg/ha): 0.0
- ECHCG ([8]; Rate 0.250 kg/ha): 0.0
- ECHCG ([8]; Rate 0.500 kg/ha): 0.0
- CASOB ([9]; Rate 0.125 kg/ha): 0.0
- CASOB ([9]; Rate 0.250 kg/ha): 0.0
- CASOB ([9]; Rate 0.500 kg/ha): 0.0
- AMBEL ([10]; Rate 0.125 kg/ha): 0.0
- AMBEL ([10]; Rate 0.250 kg/ha): 0.0
- AMBEL ([10]; Rate 0.500 kg/ha): 0.0
- IPOSS ([11]; Rate 0.125 kg/ha): 0.0
- IPOSS ([11]; Rate 0.250 kg/ha): 0.0
- IPOSS ([11]; Rate 0.500 kg/ha): 4.0
- GLXMAW ([12]; Rate 0.125 kg/ha): 0.0
- GLXMAW ([12]; Rate 0.250 kg/ha): 0.0
- GLXMAW ([12]; Rate 0.500 kg/ha): 0.0
- ZEAMX ([14]; Rate 0.125 kg/ha): 0.0
- ZEAMX ([14]; Rate 0.250 kg/ha): 0.0
- ZEAMX ([14]; Rate 0.500 kg/ha): 0.0
